Measurements as given in patent publication US20090137572A1, “2-substituted-4-heteroaryl-pyrimidines useful for the treatment of proliferative disorders” (priority 2004, published 2009).

Tests used:
Assay type in all cases: biochemical
[1] = biological target: T1, protein kinases (panel of Table 4) (Homo sapiens, UniProt Q16539); experiment: Kinase selectivity profile, kinase inhibition IC50 (Table 4), ATP 100 μM; settings: kinase SAPK2a
T1 construct: other: kinase SAPK2a; ATP 100 μM

[2] = biological target: PRK2 (Homo sapiens, UniProt Q16513); experiment: Kinase selectivity profile, PRK2; settings: 5 μM test compound, compared to control; ATP 5 μM
Protocol: (§1) The kinase selectivity profiles of selected example compounds were determined, essentially as described (Bain, J.; McLauchlan, H.; Elliott, M.; Cohen, P. Biochemical Journal, 2003, 371, 199.); the results are shown in Tables 3 & 4. For the assays shown in Table 3, the kinases were assayed at the following ATP concentrations: SAPK4, PKBΔph, GSK3b, SAPK3, CK2, MKK1, PIM2, IKKB, ERK8, and PRK2 at 5 μM; JNK, PRAK, ROCK-II, SAPK2b, CDK2, CHK1, MSK1, CSK, P70S6K, PKA, CK1, MAPKAP-K2, SGK, PKCa, PDK1, NEK 7, and MAPKAP-K3 at 20 μM; SAPK2a, LCK, AMPK, MAPK2, DYRK1a, MAPKAP-K1a, NEK-6, NEK2a, PBK, CAMK-1, SRPK-1, JNK3, MNK2, RSK2, MNK1, PKBB, and SmMLCK at 50 μM. For the assays in Table 4 the ATP concentration was 100 μM throughout.

[3] = biological target: NEK2a (Homo sapiens, UniProt P51955); experiment: Kinase selectivity profile, NEK2a; settings: 5 μM test compound, compared to control; ATP 50 μM
NEK2a, sequence (P51955 whole entry, species assumed): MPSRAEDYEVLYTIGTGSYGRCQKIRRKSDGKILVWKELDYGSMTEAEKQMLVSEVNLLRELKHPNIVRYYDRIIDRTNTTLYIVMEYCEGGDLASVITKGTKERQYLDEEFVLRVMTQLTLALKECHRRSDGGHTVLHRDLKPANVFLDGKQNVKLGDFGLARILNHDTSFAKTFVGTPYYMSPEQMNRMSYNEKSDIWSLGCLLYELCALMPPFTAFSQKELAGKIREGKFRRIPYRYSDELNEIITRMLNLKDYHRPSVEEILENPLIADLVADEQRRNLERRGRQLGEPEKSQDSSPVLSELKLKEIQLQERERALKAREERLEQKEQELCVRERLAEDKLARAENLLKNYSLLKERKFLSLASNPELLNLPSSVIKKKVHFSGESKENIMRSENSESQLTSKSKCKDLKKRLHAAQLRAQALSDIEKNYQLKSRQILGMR
Protocol: as §1

[4] = biological target: SGK (Homo sapiens, UniProt O00141); experiment: Kinase selectivity profile, SGK; settings: 5 μM test compound, compared to control; ATP 20 μM
SGK, sequence (O00141 whole entry, species assumed): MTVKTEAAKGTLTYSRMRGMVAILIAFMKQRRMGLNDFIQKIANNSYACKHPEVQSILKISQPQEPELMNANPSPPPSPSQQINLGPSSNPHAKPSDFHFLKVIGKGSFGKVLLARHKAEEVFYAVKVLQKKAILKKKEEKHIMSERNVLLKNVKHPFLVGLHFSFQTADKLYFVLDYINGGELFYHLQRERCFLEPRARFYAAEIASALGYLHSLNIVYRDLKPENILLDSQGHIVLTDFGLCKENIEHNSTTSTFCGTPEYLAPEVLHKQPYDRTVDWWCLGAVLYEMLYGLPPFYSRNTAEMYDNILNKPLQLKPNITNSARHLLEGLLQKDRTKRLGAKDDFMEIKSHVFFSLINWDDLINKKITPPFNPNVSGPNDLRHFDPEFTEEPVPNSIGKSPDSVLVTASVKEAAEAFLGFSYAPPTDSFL
Protocol: as §1

[5] = biological target: Aurora B (Homo sapiens, UniProt Q96GD4); experiment: Kinase selectivity profile, Aurora B; settings: 5 μM test compound, compared to control
Protocol: as §1

[6] = biological target: p70 S6K (Homo sapiens, UniProt P23443); experiment: Kinase selectivity profile, p70 S6K; settings: 5 μM test compound, compared to control; ATP 20 μM
Protocol: as §1

[7] = biological target: ROCK-II (Homo sapiens, UniProt O75116); experiment: Kinase selectivity profile, ROCK-II; settings: 5 μM test compound, compared to control; ATP 20 μM
Protocol: as §1

[8] = biological target: JNK/SAPK1c (Homo sapiens, UniProt P45983); experiment: Kinase selectivity profile, JNK/SAPK1c; settings: 5 μM test compound, compared to control; ATP 20 μM
JNK/SAPK1c, sequence (P45983 whole entry): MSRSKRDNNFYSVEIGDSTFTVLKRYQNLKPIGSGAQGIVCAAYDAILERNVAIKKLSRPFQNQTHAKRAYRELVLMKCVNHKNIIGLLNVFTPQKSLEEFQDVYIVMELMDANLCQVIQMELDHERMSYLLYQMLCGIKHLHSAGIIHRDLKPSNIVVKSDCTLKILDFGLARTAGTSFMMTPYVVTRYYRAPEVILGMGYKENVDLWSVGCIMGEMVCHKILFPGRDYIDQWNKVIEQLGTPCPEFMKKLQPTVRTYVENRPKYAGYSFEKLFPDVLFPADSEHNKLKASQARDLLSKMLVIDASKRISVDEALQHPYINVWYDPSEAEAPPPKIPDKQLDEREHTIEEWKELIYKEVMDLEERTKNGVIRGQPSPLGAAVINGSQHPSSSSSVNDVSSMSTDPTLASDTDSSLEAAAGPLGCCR
Protocol: as §1

[9] = biological target: CHK1 (Homo sapiens, UniProt O14757); experiment: Kinase selectivity profile, CHK1; settings: 5 μM test compound, compared to control; ATP 20 μM
Protocol: as §1

[10] = biological target: CDK2-cyclin A (Homo sapiens, UniProt P24941); experiment: Kinase selectivity profile, CDK2/cyclin A; settings: 5 μM test compound, compared to control; ATP 20 μM
Protocol: as §1

[11] = biological target: NEK7 (Homo sapiens, UniProt Q8TDX7); experiment: Kinase selectivity profile, NEK7; settings: 5 μM test compound, compared to control; ATP 20 μM
NEK7, sequence (Q8TDX7 whole entry, species assumed): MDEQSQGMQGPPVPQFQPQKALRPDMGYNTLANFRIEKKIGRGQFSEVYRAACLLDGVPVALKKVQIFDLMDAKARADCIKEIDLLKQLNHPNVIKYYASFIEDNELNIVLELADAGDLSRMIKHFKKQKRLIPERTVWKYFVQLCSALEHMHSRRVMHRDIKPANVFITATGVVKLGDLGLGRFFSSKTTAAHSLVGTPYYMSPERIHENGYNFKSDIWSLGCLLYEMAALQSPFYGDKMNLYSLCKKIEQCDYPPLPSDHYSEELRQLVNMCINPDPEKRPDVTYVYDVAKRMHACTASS
Protocol: as §1

[12] = biological target: MNK1 (Homo sapiens, UniProt Q9BUB5); experiment: Kinase selectivity profile, MNK1; settings: 5 μM test compound, compared to control; ATP 50 μM
MNK1, sequence (Q9BUB5 whole entry, species assumed): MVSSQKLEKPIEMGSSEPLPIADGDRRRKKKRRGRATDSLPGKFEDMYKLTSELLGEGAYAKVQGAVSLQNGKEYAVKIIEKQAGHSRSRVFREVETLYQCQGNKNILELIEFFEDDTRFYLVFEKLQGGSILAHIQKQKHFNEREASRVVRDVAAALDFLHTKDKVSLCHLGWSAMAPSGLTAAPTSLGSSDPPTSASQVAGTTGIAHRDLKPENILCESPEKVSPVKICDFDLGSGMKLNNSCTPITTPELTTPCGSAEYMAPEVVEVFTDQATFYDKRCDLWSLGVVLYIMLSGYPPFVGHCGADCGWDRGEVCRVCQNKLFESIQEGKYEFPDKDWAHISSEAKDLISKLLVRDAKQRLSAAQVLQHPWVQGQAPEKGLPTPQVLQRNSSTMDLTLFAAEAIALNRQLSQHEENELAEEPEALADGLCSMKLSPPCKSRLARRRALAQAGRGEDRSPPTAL
Protocol: as §1

[13] = test system: CK1; experiment: Kinase selectivity profile, CK1; settings: 5 μM test compound, compared to control; ATP 20 μM
Protocol: as §1

[14] = biological target: MNK2 (Homo sapiens, UniProt Q9HBH9); experiment: Kinase selectivity profile, MNK2; settings: 5 μM test compound, compared to control; ATP 50 μM
MNK2, sequence (Q9HBH9 whole entry, species assumed): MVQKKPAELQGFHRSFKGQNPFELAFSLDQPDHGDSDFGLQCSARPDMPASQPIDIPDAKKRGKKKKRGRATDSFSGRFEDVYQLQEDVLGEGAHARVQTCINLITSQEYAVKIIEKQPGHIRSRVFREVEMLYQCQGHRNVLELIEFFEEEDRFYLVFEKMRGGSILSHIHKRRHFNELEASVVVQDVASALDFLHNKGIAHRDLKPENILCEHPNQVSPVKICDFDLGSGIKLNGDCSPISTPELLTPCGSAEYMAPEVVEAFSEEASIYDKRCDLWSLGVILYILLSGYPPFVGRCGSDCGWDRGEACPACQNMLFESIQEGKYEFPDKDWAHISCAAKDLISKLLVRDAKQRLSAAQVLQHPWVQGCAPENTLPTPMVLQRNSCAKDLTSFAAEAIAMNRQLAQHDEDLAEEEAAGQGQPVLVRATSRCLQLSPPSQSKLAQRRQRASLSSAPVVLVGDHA
Protocol: as §1

[15] = biological target: DYRK1a (Homo sapiens, UniProt Q13627); experiment: Kinase selectivity profile, DYRK1a; settings: 5 μM test compound, compared to control; ATP 50 μM
Protocol: as §1

[16] = biological target: GSK3b (Homo sapiens, UniProt P49841); experiment: Kinase selectivity profile, GSK3b; settings: 5 μM test compound, compared to control; ATP 5 μM
Protocol: as §1

[17] = biological target: MAPKAP-K3 (Homo sapiens, UniProt Q16644); experiment: Kinase selectivity profile, MAPKAP-K3; settings: 5 μM test compound, compared to control; ATP 20 μM
MAPKAP-K3, sequence (Q16644 whole entry, species assumed): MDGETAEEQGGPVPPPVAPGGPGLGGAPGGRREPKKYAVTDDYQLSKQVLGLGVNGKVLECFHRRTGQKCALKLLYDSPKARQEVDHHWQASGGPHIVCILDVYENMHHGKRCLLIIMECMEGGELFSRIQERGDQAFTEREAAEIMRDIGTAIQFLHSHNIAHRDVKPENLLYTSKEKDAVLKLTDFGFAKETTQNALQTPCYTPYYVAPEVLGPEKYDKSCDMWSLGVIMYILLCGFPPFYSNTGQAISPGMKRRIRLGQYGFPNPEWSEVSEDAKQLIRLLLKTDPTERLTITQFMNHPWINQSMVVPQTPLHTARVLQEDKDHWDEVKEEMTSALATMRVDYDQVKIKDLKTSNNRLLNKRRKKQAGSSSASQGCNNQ
Protocol: as §1

[18] = biological target: Lck (Homo sapiens, UniProt P06239); experiment: Kinase selectivity profile, Lck; settings: 5 μM test compound, compared to control; ATP 50 μM
Lck, sequence (P06239 whole entry, species assumed): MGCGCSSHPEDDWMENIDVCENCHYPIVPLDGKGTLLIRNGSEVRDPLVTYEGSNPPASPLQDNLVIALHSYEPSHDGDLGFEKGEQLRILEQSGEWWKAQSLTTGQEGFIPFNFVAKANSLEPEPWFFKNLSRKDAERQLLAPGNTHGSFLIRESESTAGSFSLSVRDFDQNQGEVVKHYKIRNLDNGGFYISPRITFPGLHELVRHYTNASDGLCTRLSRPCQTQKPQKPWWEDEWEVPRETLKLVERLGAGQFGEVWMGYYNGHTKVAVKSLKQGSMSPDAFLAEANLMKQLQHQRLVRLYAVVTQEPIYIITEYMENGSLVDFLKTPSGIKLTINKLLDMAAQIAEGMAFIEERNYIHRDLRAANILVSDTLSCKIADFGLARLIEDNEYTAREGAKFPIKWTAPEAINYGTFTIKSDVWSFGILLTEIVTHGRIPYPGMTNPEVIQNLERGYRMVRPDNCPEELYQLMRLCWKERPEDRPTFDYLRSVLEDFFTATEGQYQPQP
Protocol: as §1

[19] = biological target: SAPK4/p38d (Homo sapiens, UniProt O15264); experiment: Kinase selectivity profile, SAPK4/p38d; settings: 5 μM test compound, compared to control; ATP 5 μM
Protocol: as §1

[20] = biological target: MAPKAP-K1b (Homo sapiens, UniProt P51812); experiment: Kinase selectivity profile, MAPKAP-K1b; settings: 5 μM test compound, compared to control
MAPKAP-K1b, sequence (P51812 whole entry, species assumed): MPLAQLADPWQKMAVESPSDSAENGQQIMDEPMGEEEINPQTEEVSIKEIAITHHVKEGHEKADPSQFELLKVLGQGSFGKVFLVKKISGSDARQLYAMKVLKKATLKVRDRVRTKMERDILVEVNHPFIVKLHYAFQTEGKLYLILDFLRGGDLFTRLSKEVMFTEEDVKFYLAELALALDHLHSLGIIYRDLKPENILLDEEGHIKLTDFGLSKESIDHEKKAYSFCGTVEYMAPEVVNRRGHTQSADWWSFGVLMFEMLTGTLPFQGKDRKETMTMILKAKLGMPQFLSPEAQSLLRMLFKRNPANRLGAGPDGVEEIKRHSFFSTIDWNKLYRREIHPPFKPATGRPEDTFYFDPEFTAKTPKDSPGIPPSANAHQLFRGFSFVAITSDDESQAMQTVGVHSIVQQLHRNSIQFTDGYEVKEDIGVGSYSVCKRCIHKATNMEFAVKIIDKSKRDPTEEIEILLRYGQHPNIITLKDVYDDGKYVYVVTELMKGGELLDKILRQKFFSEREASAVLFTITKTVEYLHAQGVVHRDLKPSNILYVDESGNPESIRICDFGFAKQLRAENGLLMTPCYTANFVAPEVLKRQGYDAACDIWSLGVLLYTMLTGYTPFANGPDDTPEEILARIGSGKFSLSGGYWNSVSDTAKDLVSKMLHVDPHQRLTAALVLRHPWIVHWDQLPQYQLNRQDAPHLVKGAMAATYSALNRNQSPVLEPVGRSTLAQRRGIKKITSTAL
Protocol: as §1

[21] = biological target: SAPK2b/p38β2 (Homo sapiens, UniProt Q15759); experiment: Kinase selectivity profile, SAPK2b/p38β2; settings: 5 μM test compound, compared to control; ATP 20 μM
SAPK2b/p38β2, sequence (Q15759 whole entry): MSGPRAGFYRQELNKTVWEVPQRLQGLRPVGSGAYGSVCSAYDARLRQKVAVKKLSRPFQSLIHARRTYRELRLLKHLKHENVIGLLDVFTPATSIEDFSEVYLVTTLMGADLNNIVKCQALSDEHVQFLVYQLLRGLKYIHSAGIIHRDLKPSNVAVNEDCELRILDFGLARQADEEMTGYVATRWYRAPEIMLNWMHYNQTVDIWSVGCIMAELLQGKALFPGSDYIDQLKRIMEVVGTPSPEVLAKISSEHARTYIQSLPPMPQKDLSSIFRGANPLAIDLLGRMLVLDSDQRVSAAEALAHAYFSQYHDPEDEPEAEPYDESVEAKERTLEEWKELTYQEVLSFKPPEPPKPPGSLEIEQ
Protocol: as §1

[22] = biological target: smMLCK (Homo sapiens, UniProt Q15746); experiment: Kinase selectivity profile, smMLCK; settings: 5 μM test compound, compared to control; ATP 50 μM
Protocol: as §1

[23] = biological target: CSK (Homo sapiens, UniProt P41240); experiment: Kinase selectivity profile, CSK; settings: 5 μM test compound, compared to control; ATP 20 μM
Protocol: as §1

[24] = biological target: PKA (Homo sapiens, UniProt P17612); experiment: Kinase selectivity profile, PKA; settings: 5 μM test compound, compared to control; ATP 20 μM
Protocol: as §1

[25] = biological target: PDK1 (Homo sapiens, UniProt O15530); experiment: Kinase selectivity profile, PDK1; settings: 5 μM test compound, compared to control; ATP 20 μM
Protocol: as §1

[26] = test system: PKB; experiment: Kinase selectivity profile, PKB; settings: 5 μM test compound, compared to control; ATP 5 μM (PKBΔph)
Protocol: as §1

[27] = biological target: IKKb (Homo sapiens, UniProt O14920); experiment: Kinase selectivity profile, IKKb; settings: 5 μM test compound, compared to control; ATP 5 μM
Protocol: as §1

[28] = biological target: SAPK2a/p38 (Homo sapiens, UniProt Q16539); experiment: Kinase selectivity profile, SAPK2a/p38; settings: 5 μM test compound, compared to control; ATP 50 μM
SAPK2a/p38, sequence (Q16539 whole entry): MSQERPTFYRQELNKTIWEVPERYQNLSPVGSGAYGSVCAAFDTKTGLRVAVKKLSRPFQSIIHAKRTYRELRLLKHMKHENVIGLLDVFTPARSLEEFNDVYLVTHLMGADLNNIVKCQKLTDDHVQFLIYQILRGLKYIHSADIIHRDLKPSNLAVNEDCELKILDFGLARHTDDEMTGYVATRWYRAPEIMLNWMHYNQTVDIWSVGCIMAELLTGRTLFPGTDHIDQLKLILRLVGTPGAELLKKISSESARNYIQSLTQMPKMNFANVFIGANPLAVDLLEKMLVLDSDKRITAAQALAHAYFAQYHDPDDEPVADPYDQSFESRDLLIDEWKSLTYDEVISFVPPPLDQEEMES
Protocol: as §1

T1 sequence (Q16539 whole entry): as above

CNc1nc(C)c(-c2ccnc(Nc3cccc(S(N)(=O)=O)c3)n2)s1 [Compound 19, 3-[4-(4-Methyl-2-methylamino-thiazol-5-yl)-pyrimidin-2-ylamino]-benzenesulfonamide] showed an IC50 [1] of 580 nM.
CCNc1nc(C)c(-c2ccnc(Nc3ccc(N4CCNCC4)cc3)n2)s1 [Compound 59, [4-(2-Ethylamino-4-methyl-thiazol-5-yl)-pyrimidin-2-yl]-(4-piperazin-1-yl-phenyl)-amine] showed a remaining activity at 5 µM [2] of 8%, a remaining activity at 5 µM [3] of 9% and a remaining activity at 5 µM [4] of 0%. For the same compound, the remaining activity at 5 µM [5] was 4%, the remaining activity at 5 µM [6] was 13% and the remaining activity at 5 µM [7] was 5%. The remaining activity at 5 µM [8] was 2%, the remaining activity at 5 µM [9] was 10% and the remaining activity at 5 µM [10] was 1%. For the same compound, the remaining activity at 5 µM [11] was 50%, the remaining activity at 5 µM [12] was 3% and the “Remaining activity (%) CK1” value [13] was 3%. The remaining activity at 5 µM [14] was 20%, the IC50 [1] was 3300 nM and the remaining activity at 5 µM [15] was 4%. The remaining activity at 5 µM [16] was 37%, the remaining activity at 5 µM [17] was 87% and the remaining activity at 5 µM [18] was 1%. The remaining activity at 5 µM [19] was 66%, the remaining activity at 5 µM [20] was 17% and the remaining activity at 5 µM [21] was 36%. It also gave a remaining activity at 5 µM [22] of 10%, a remaining activity at 5 µM [23] of 14% and a remaining activity at 5 µM [24] of 22%. For the same compound, the remaining activity at 5 µM [25] was 20%, the “Remaining activity (%) PKB” value [26] was 82% and the remaining activity at 5 µM [27] was 7%. For the same compound, the remaining activity at 5 µM [28] was 39%.
Cc1nc(CS(=O)(=O)c2cccs2)sc1-c1ccnc(Nc2ccc(N3CCOCC3)cc2)n1 [Compound 138, {4-[4-Methyl-2-(thiophene-2-sulfonylmethyl)-thiazol-5-yl]-pyrimidin-2-yl}-(4-morpholin-4-yl-phenyl)-amine] was tested, and the remaining activity at 5 µM [2] was 78%, the remaining activity at 5 µM [3] was 6% and the remaining activity at 5 µM [4] was 5%. For the same compound, the remaining activity at 5 µM [5] was 5%, the remaining activity at 5 µM [6] was 41% and the remaining activity at 5 µM [7] was 14%. The remaining activity at 5 µM [8] was 10%, the remaining activity at 5 µM [9] was 55% and the remaining activity at 5 µM [10] was 9%. For the same compound, the remaining activity at 5 µM [11] was 79%, the remaining activity at 5 µM [12] was 18% and the “Remaining activity (%) CK1” value [13] was 27%. For the same compound, the remaining activity at 5 µM [14] was 27%, the remaining activity at 5 µM [15] was 27% and the remaining activity at 5 µM [16] was 21%. The remaining activity at 5 µM [17] was 104%, the remaining activity at 5 µM [18] was 7% and the remaining activity at 5 µM [19] was 85%. It also gave a remaining activity at 5 µM [20] of 48%, a remaining activity at 5 µM [21] of 42% and a remaining activity at 5 µM [22] of 44%. It also gave a remaining activity at 5 µM [23] of 30%, a remaining activity at 5 µM [24] of 29% and a remaining activity at 5 µM [25] of 55%. The “Remaining activity (%) PKB” value [26] was 91%, the remaining activity at 5 µM [27] was 34% and the remaining activity at 5 µM [28] was 33%.
